≈ marks a conversion by molar mass, not a printed value.
Legend:
[1] = test system: dl-PGE1-induced contraction of gerbil colon; experiment: inhibition of dl-PGE1-induced contraction of gerbil colon; settings: approximate; for ID50 vs. 20 ng. of PGE1 /ml.: sub-maximal challenge, 20 ng./ml. dl-PGE1, 50% inhibition of maximum response; for ID50 vs. 200 ng. of PGE1 ml.: maximal challenge, 200 ng./ml. dl-PGE1
[2] = test system: diastolic blood pressure; experiment: hypotensive activity in anesthetized rats (minimal dose lowering diastolic blood pressure about 10 mm.); format: in vivo, Male Wistar strain rats; settings: Rattus norvegicus; intravenous; dose producing a decrease of about 10 mm. in diastolic blood pressure
Method: This procedure is a modification of the technique described by Pike et al., Prostaglandins, Nobel Symposium 2, Stockholm, June, 1966; p. 165.
Male Wistar strain rats (Royal Hart Farms) averaging approximately 250 grams in weight were fastened to rat boards in a supine position by means of canvas vests and limb ties. The femoral area was infiltrated subcutaneously with lidocaine and the iliac artery and vein were exposed and cannulated. Arterial blood pressure (systolic/diastolic) was recorded using a Statham P23 Db pressure transducer-Offner dynograph system. To obtain a stable blood pressure, the animals were anesthetized before use with pentobarbital, 30 mg./kg. of body weight intravenously, and also were given hexamethonium bitartrate, 2 mg./kg., of body weight intravenously. The test compounds were prepared by ultrasonic dispersion in a saline-Tween 80 vehicle. A constant intravenous dose volume of 0.5 ml. was administered and test doses ranged from 0.1 to 10.0 mg./kg. of body weight. Increasing or decreasing doses were selected depending on the dose response obtained. In Table I below are set forth the minimal doses required to produce a decrease of about 10 mm. in diastolic blood pressure for typical compounds of the present invention.

[3] = test system: Trichophyton mentagrophytes E 11?; experiment: agar-dilution streak-plate antifungal assay (4); format: cell-based; settings: read-out: Minimal inhibitory conc.
Method: (§1) The novel compounds of the present invention are also useful as antimicrobial agents. […] In this assay, the compounds to be tested are made up to contain 2.5 mg. of test compound per milliliter of solution. Observing sterile techniques, two-fold serial dilutions are made of each test solution. One milliliter of each of the original solutions and of each of the serial dilutions is then added to 9 ml. of warm sterile nutrient agar capable of supporting growth of the bacterial test cultures. A second set of agar dilutions is prepared identical to the first except that the nutrient agar is designed to support the growth of the fungal test cultures. […] The test bacteria and yeast-like fungi are prepared for use by growing in broth overnight. The spores of the filamentous fungi are harvested from mature agar slant cultures and are suspended in sterile physiological saline solution. A loopful of each of the resulting live suspensions is then, still employing sterile techniques, streaked upon the surfaces of each of the agar plates and the resulting streaked plates are then incubated. After an appropriate period of time, each of the streaks on each of the plates is inspected visually and the extent, if any, of bacterial or fungal growth is noted. The minimal inhibitory concentration (expressed in micrograms per milliliter) is defined as the concentration of test compound causing complete inhibition of growth of any particular organism. In a representative operation, and merely by way of illustration, the minimal inhibitory concentration of typical compounds of the present invention against a variety of test organisms as determined in the above-described assay are set forth in Tables II and III below: […]

[4] = test system: gastric acid secretion; experiment: inhibition of gastric acid secretion (pylorus-ligated rat, Shay rat); format: in vivo, rats (male, CFE strain); settings: intraduodenal dose 100 mg./kg. body weight, 3 hours, 20% or more considered active
Method: The novel compounds of the present invention are also effective inhibitors of gastric acid secretion and of ulcer development in experimental animals, and thus are potentially valuable as agents for the control of gastric acid secretion and of gastric erosion and as anti-ulcer agents. Gastric acid secretion inhibitory action is usually measured by the "Shay rat" procedure ^(1,2) with some modifications as follows.
The rats (male, CFE strain) were starved for 48 hours (water was given ad libitum) to permit evacuation of stomach contents. On the morning of the experiment, under ether anesthesia, the abdominal region was shaved and a midline incision (1-11/2 inches) was made with a scalpel. With the help of a closed curved hemostat the duodenum was picked up. Upon getting the duodenum into view fingers were used to pull the stomach through the opening, the stomach was then gently manipulated with fingers to rid the stomach of air and residual matter which were pushed through the pylorus. Two 5-inch sutures were drawn under the pyloric-duodenal juncture. A ligature, at the juncture, was formed with one of the threads. The second ligature was also formed by not tightened.
The test compound or the vehicle, usually 1 ml./100 g. body weight, were injected into the duodenum as close as possible to the first ligature. After injection the second ligature was tightened below the injection site to minimize leakage. The stomach was placed back through the opening into the abdominal cavity, the area of incision was washed with saline and the incision was closed with autoclips. (Ocasionally, instead of an intraduodenal injection, animals were dosed by the oral or subcutaneous route. In the latter case, dosing was done thirty to sixty minutes before the operation).
The abdominal cavity was exposed by cutting with scissors and the esophagus close to the stomach was clamped off with a hemostat, the stomach was removed by cutting above the hemostat (the espohagus was cut) and between the two sutures. Extraneous tissue was removed, the stomach washed with saline and blotted on gauze. A slit was carefully made in the stomach which was held over a funnel and the contents were collected in a centrifuge tube. The stomach was further cut along the outside edge and turned inside out. Two ml. of water were used to wash the stomach contents into the respective centrifuge tube. The combined stomach contents and wash were then centrifuged out for 10 minutes in the International Size 2 Centrifuge (setting at 30). The supernatant was collected, volume measured and recorded, 2 drops of phenolphthalein indicator (1% in 95% ethanol) were added and the solution was titrated with 0.02N NaOH (or with 0.04N NaOH when large volumes of stomach contents were encountered) to pH 8.4 (because of usual coloring of the stomach contents, phenolphthalein was only used to permit visual indication that the end point was near) and the amount of acid present was calculated.
Compounds inducing inhibition of gastric acid secretion of 20% or more were considered active. In a representative operation, and merely by way of illustration, the results obtained with this assay with typical compounds of the present invention are given in Table IIIA.

[5] = test system: Microsporum canis ATCC 10214; experiment: agar-dilution streak-plate antifungal assay (1); format: cell-based; settings: ATCC10214, read-out: Minimal inhibitory conc.
Method: as §1

[6] = test system: Mycobacterium smegmatis ATCC 606; experiment: agar-dilution streak-plate antibacterial assay (6); format: cell-based; settings: Mycolicibacterium smegmatis, ATCC606, read-out: Minimal inhibitory conc.
Method: as §1

[7] = test system: Trichophyton rubrum E 97; experiment: agar-dilution streak-plate antifungal assay (5); format: cell-based; settings: E97, read-out: Minimal inhibitory conc.
Method: as §1

[8] = test system: Trichophyton tonsurans NIH 662; experiment: agar-dilution streak-plate antifungal assay (3); format: cell-based; settings: NIH662, read-out: Minimal inhibitory conc.
Method: as §1

[9] = test system: Staphylococcus aureus Rose ATCC 14154; experiment: agar-dilution streak-plate antibacterial assay (7); format: cell-based; settings: ATCC14154, read-out: Minimal inhibitory conc.
Method: as §1

[10] = test system: Microsporum gypseum ATCC 14683; experiment: agar-dilution streak-plate antifungal assay (2); format: cell-based; settings: Nannizzia gypsea, ATCC14683, read-out: Minimal inhibitory conc.
Method: as §1

[11] = test system: Streptococcus pyogenes C 203; experiment: agar-dilution streak-plate antibacterial assay (8); format: cell-based; settings: C203, read-out: Minimal inhibitory conc.
Method: as §1

Row | SMILES | MIC [3] [mg/L] | MIC [5] [mg/L] | MIC [6] [mg/L] | MIC [7] [mg/L] | MIC [8] [mg/L] | MIC [9] [mg/L] | MIC [10] [mg/L] | MIC [11] [mg/L] | ID50 vs. 20 ng. of PGE1 /ml. [1] [mg/L] | minimal effective dose [2] [mg/kg] | Percent Inhibition of gastric acid secretion [4] [%] | ID50 vs. 200 ng. of PGE1 ml. [1] [mg/L]
1 | CCCCCC/C=C/[C@H]1CCC(=O)[C@@H]1CCCCCCC(=O)N1CC2CCC(CC2)C1 (relative stereo) |  |  |  |  |  |  |  |  | 4 |  |  | 
2 | CCCCCC/C=C/[C@H]1CCC(=O)[C@@H]1CCCCCCC(=O)N1CCN(C)CC1 (relative stereo) [listing 2 of 2 here] |  |  |  |  |  |  |  |  | 0.5 |  |  | 3
3 | CCCCCC/C=C/[C@H]1CCC(=O)[C@@H]1CCCCCCC(=O)N1CCN(c2ccccc2)CC1 (relative stereo) |  |  |  |  |  |  |  |  |  | 8 |  | 
4 | CCCCCC/C=C/[C@H]1CCC(=O)[C@@H]1CCCCCCC(=O)NO (relative stereo) | 250 (≈ 741 µM) | 250 (≈ 741 µM) | 250 (≈ 741 µM) | 250 (≈ 741 µM) | 250 (≈ 741 µM) | 250 (≈ 741 µM) | 250 (≈ 741 µM) | 250 (≈ 741 µM) |  | 2 | 38 | 12
5 | CCCCCC/C=C/[C@H]1CCC(=O)[C@@H]1CCCCCCC(=O)NCCO (relative stereo) [N-(2-hydroxyethyl)-9-oxo-13-trans-prostenamide] | 10 (≈ 27.4 µM) | 25 (≈ 68.4 µM) | 25 (≈ 68.4 µM) | 25 (≈ 68.4 µM) | 25 (≈ 68.4 µM) | 25 (≈ 68.4 µM) | 25 (≈ 68.4 µM) | 10 (≈ 27.4 µM) | 1 | 0.4 |  | 
6 | CCC/C=C/[C@H]1CCC(=O)[C@@H]1CCCCCCC(=O)NCCCN(C)C (relative stereo) [N-(3-dimethylaminopropyl) 9-oxo-18,19,20-trinor-13-trans-prostenamide] |  |  |  |  |  |  |  |  |  |  | 87 | 

Further molecules by falling MIC [3], results first:

Row | MIC [3] [mg/L] | MIC [5] [mg/L] | MIC [6] [mg/L] | MIC [7] [mg/L] | MIC [8] [mg/L] | MIC [9] [mg/L] | MIC [10] [mg/L] | MIC [11] [mg/L] | SMILES | ID50 vs. 20 ng. of PGE1 /ml. [1] [mg/L] | minimal effective dose [2] [mg/kg] | Percent Inhibition of gastric acid secretion [4] [%] | ID50 vs. 200 ng. of PGE1 ml. [1] [mg/L]
7 | 250 (≈ 638 µM) | 250 (≈ 638 µM) | 25 (≈ 63.8 µM) |  | 250 (≈ 638 µM) |  |  | 25 (≈ 63.8 µM) | CCCCCC/C=C/[C@H]1CCC(=O)[C@@H]1CCCCCCC(=O)N1CCOCC1 (relative stereo) |  | 1 |  | 
8 | 125 (≈ 306 µM) | 250 (≈ 612 µM) | 6 (≈ 14.7 µM) | 250 (≈ 612 µM) | 125 (≈ 306 µM) | 62 (≈ 152 µM) | 125 (≈ 306 µM) | 6 (≈ 14.7 µM) | CCCCCC/C=C/[C@H]1CCC(O)[C@@H]1CCCCCCC(=O)NCCCN(C)C (stereo partly drawn) [N-(3-dimethylaminopropyl)-9-(α- and β-)-hydroxy-13-trans-prostenamide] |  | 0.2 | 85 | 
9 | 50 (≈ 133 µM) | 100 (≈ 266 µM) | 5 (≈ 13.3 µM) | 25 (≈ 66.6 µM) | 50 (≈ 133 µM) | 50 (≈ 133 µM) | 10 (≈ 26.6 µM) | 5 (≈ 13.3 µM) | CCCCCC/C=C/[C@H]1CCC(=O)[C@@H]1CCCCCCC(=O)N1CCCC1 (relative stereo) | 1 | 8 |  | 
10 | 25 (≈ 61.5 µM) | 100 (≈ 246 µM) | 10 (≈ 24.6 µM) | 100 (≈ 246 µM) | 100 (≈ 246 µM) | 50 (≈ 123 µM) | 100 (≈ 246 µM) | 10 (≈ 24.6 µM) | CCCCCC/C=C/[C@H]1CCC(=O)[C@@H]1CCCCCCC(=O)NCCCN(C)C (relative stereo) | 0.5 | 0.4 | 76 | 
11 | 25 (≈ 77.8 µM) | 50 (≈ 156 µM) | 25 (≈ 77.8 µM) | 50 (≈ 156 µM) | 50 (≈ 156 µM) | 50 (≈ 156 µM) | 50 (≈ 156 µM) | 10 (≈ 31.1 µM) | CCCCCC/C=C/[C@H]1CCC(=O)[C@@H]1CCCCCCC(N)=O (relative stereo) [9-oxo-13-trans-prostenamide] | 5 | 2 |  | 
12 | 25 (≈ 71.5 µM) | 25 (≈ 71.5 µM) | 10 (≈ 28.6 µM) | 25 (≈ 71.5 µM) | 25 (≈ 71.5 µM) | 25 (≈ 71.5 µM) | 25 (≈ 71.5 µM) | 10 (≈ 28.6 µM) | CCCCCC/C=C/[C@H]1CCC(=O)[C@@H]1CCCCCCC(=O)N(C)C (relative stereo) [N,N-dimethyl-9-oxo-13-trans-prostenamide] | 2 | 2 |  | 
13 | 25 (≈ 68.6 µM) | 25 (≈ 68.6 µM) | 10 (≈ 27.4 µM) | 25 (≈ 68.6 µM) | 25 (≈ 68.6 µM) | 25 (≈ 68.6 µM) | 25 (≈ 68.6 µM) | 10 (≈ 27.4 µM) | CCCCCC/C=C/[C@H]1CCC(=O)[C@@H]1CCCCCCC(=O)NN(C)C (relative stereo) [N-(dimethylamino)-9-oxo-13-trans-prostenamide] | 0.5 | 2 | 58 | 
14 | 25 (≈ 74.5 µM) | 100 (≈ 298 µM) |  | 100 (≈ 298 µM) | 25 (≈ 74.5 µM) | 5 (≈ 14.9 µM) | 50 (≈ 149 µM) |  | CCCCCC/C=C/[C@H]1CCC(=O)[C@@H]1CCCCCCC(=O)NC (relative stereo) [N-methyl-9-oxo-13-trans-prostenamide] |  | 4 to 8 |  | 
15 | 10 (≈ 24.7 µM) | 25 (≈ 61.8 µM) | 10 (≈ 24.7 µM) | 25 (≈ 61.8 µM) | 25 (≈ 61.8 µM) | 25 (≈ 61.8 µM) | 25 (≈ 61.8 µM) | 10 (≈ 24.7 µM) | CCCCCC/C=C/[C@H]1CCC(=O)[C@@H]1CCCCCCC(=O)N1CCN(C)CC1 (relative stereo) [listing 1 of 2 here] |  | 4 | 36 | 
